Like-named read-outs stand apart in the source and are kept apart here. Where only a bound is given, the exact number is not on record here.

Consider 11 molecules from patent US10071990B2, “Site-specific orthogonal labeling of the carboxy terminus of α-tubulin in live cells” (The Research Foundation for The State University of New York, priority 2013, dated 2018).

In one data set the target is T1, tubulin tyrosine ligase (Homo sapiens, UniProt Q8NG68).
T1 construct: made in house; host or cells: Escherichia coli BL21
T1 sequence (Q8NG68 1-377): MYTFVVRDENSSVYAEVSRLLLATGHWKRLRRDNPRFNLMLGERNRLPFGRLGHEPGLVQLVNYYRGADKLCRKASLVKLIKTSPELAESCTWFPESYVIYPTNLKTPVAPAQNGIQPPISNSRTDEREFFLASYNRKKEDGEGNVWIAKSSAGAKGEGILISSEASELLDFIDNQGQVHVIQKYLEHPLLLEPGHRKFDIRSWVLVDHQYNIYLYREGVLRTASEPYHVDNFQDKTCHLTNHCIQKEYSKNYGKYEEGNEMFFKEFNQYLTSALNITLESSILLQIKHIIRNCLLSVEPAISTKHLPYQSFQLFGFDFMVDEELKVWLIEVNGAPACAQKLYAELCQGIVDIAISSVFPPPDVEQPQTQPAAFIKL
Description: Inhibition of [3H]-L-tyrosine incorporation into tubulin by TTL. The class given is biochemical. As for the experimental part: Tubulin Tyrosine Ligase. An initial supply of TTL was a gift of Prof. Dr. Jürgen Wehland and Dr. Christian Erck (Gesellschaft für Biotechnologische Forschung, Germany) and was stored at −80° C. Human TTL was prepared using expression vector p Receiver 05x (Genecopoeia, Md.), transformed into the Escherichia coli expression strain BL21.
[3H]-Tyr Incorporation Assay. TTL was thawed and diluted to 1 mg mL^−1 immediately before use. Detyrosinated tubulin (10 μM tubulin) in TTL buffer was combined with […] μL^−1 [3H-Tyr], 0.1 μg μL^−1 TTL, and various concentrations of inhibitor. The mixture was allowed to react for 30 min at 37° C. A 35 μL aliquot of the sample was placed onto DEAE chromatography paper (Whatman) and allowed to dry for 30 min. The protein was fixed using 200 μL of 10% acetic acid and allowed to dry for 10 min. Excess [3H-Tyr] was removed by 2 washes with 3.5 mL of 100% ethanol. The paper was allowed to dry for 30 min and then was combined with 10 mL of Scintiverse (BD) scintillation fluid. The amount of [3H]-tyrosine on each filter was determined using a β-counter.

The subject of a further data set is cells. Description: SRB assay after 96 h treatment with amino acid. The class given is cell-based. Particulars: for IC50: cells treated 96 h, read-out: IC 50 (toxicity). (In SRB staining, fixed cells bind dye roughly in proportion to their protein.)
Data set [1] concerns PC3 cells. The data set can be described thus: SRB cytotoxicity of amino acid and fluorophore on live cells. The data set is classed as cell-based. Conditions: 24 hour period. The procedure:
PC3 cells were grown in medium supplemented with unnatural amino acid or vehicle for 24 h. Cells were then treated with fluorophore or vehicle for 24 h, following which an SRB assay was performed to assess the cytotoxicity of the molecules.
FIGS. 12A-12C show graphs of cytotoxicity of amino acid and fluorophore on live cells. The labeling technique is not detrimental to PC3 cell survival. PC3 cells were grown in medium supplemented with unnatural amino acid or vehicle (2% v/v, 10 mM phosphate buffer, pH 7) for 24 h. Cells were then treated with fluorophore or vehicle (1% v/v DMSO) for 24 h. Following which SRB assay was performed to assess the cytotoxicity of the molecules.

The subject of data set [2] is PC3 cells. Description: Effect on cell morphology and microtubule network (immunofluorescence). The class given is cell-based. Conditions: 24 hour treatment followed by treatment with a fluorophore. The procedure:
PC3 cells were grown in F12K medium supplemented with unnatural amino acid for 24 h. Cells were washed and then treated with fluorophores for 24 h before fixing with methanol. Cells were then processed for immunofluorescence using tubulin antibody (red) and DAPI (blue).
PC3 cells were grown in F12K medium supplemented with unnatural amino acid for 24 h. Cells were washed and treated with a fluorophore for 24 h before fixing with methanol. Cells were then processed for immunofluorescence using tubulin antibody (red) and DAPI (blue).

Data set [3] is described as follows: Kinetics of hydrazone formation by absorption difference spectroscopy. Conditions: reaction with 3-formyltyrosine, PME buffer pH 6.9, 25° C. The source says: Removal and replacement of the C-terminal tyrosine of α-tubulin can be assessed by Western blot. […] The presence of a carbonyl in α-tubulin was confirmed reacting the protein with dinitrophenylhydrazine (DNPH) followed L-tyrosine or 3-formyltyrosine as described under Methods and then subjected to SDS-PAGE. Top: Western blot with tyrosinated α-tubulin antibody (Sigma-Aldrich TUB-1A2). Bottom: Coomassie stain. Lane 1: Tubulin. Lane 2: Tubulin treated with CPA. Lane 3: CPA-treated tubulin retyrosinated with tyrosine. Lane 4: CPA-treated tubulin retyrosinated with 3-formyltyrosine. The mass of protein loaded each well was 0.66 μg for the Western blot and 10 μg for the protein stain. Hydrazone Formation: Effect of the Structure of the Nucleophile. Reactions of aldehydes and ketones with hydrazines, hydroxylamines, and amines have been extensively studied (33). The rate vs pH curve is bellshaped; the maximum reaction rate is around the pKa of the hydrazine. […]
Kinetic Measurements. Kinetics of hydrazone formation were measured using absorption difference spectroscopy. […] The change in absorbance for one wavelength was selected from the spectral data, and these values were plotted as a function of time. The data were analyzed as a single pseudo-first-order reaction and were fit to the appropriate equation using SigmaPlot 10.0.

The nature of data set [4]: Absorption and fluorescence spectra and quantum yield. The data set is classed as physicochemical. Particulars: in methanol at 25° C. As for the experimental part:
To test this hypothesis, the absorption and fluorescence spectra of coumarin hydrazine and the salicylaldehyde hydrazone of coumarin hydrazine were measured, which serves as a model compound for the protein-bound hydrazone. Hydrazone formation causes a shift in both the absorption and emission maxima of coumarin hydrazine and a significant increase in quantum yield (Table 2). Thus, as a result of the difference in the spectroscopic window and the quantum yields of coumarin hydrazine and its salicylaldehyde hydrazone, fluorescence from unreacted coumarin hydrazine can be averted.

The conditions of data set [5]: from reference 34; cited from earlier work.
Setting [6] is: inhibition of tubulin tyrosine ligase, 10 μM detyrosinated tubulin, 30 min at 37° C.

In general, Ki refers to a dissociation constant, usually derived from enzyme kinetics or from competition with a known ligand. The low end stands for tighter binding, the high end for weaker binding. Molecule `N[C@@H](Cc1ccc(O)cc1)C(=O)O` [Tyrosine] yielded a Ki at tubulin tyrosine ligase (setting [6]) of 25 µM.

Regarding `CC(=O)c1cc(C[C@H](N)C(=O)O)ccc1O` [AcY, 3-acetyltyrosine], in the data set on cells, the IC50 was more than 5000 µM. In the data set on PC3 cells [1], the “cytotoxicity compared with 3fY” value was “less cytotoxic over 24 hour period than 3fY”. Moreover, the “effect on microtubule network and cell morphology” value in the data set with PC3 cells [2] is given as “does not alter the microtubule network or cell morphology”.

For `Cc1cc(=O)oc2cc(NN)ccc12` [coumarin hydrazine, 7-hydrazino-4-methyl coumarin], the “time to complete hydrazone formation” value in data set [3] is on record as not above 120 min. Also, in data set [3] (no catalyst), the “second-order rate constant of hydrazone formation” value turned out to be 0.883 M⁻¹ s⁻¹. For the same molecule, in data set [4], the Abs max amounted to 360 nm, the Em max was found to be 432 nm and the “φ (quantum yield)” value stood at 0.046.

On to `N[C@@H](Cc1ccc(O)c(C=O)c1)C(=O)O` [3-Formyltyrosine], for which the Ki at tubulin tyrosine ligase is 300 µM. Also, in the data set on cells, the IC50 is more than 25 µM. In the data set on PC3 cells [2], the “effect on microtubule network and cell morphology” value is given as “does not alter the microtubule network or cell morphology”.

For `NNC(=O)[C@@H](N)Cc1ccc(O)cc1` [Yzide, tyrosine hydrazide, reference compound], the “toxicity” value in the data set with cells (5 mM ligand, 96 h) is reported as “No toxicity observed”. Besides, the IC50 with cells was more than 5000 µM. In the data set with PC3 cells [2], the “effect on microtubule network and cell morphology” value is on record as “does not alter the microtubule network or cell morphology”.

As for `Nc1ccc(C[C@H](N)C(=O)O)cc1` [4-Aminophenylalanine], the Ki on tubulin tyrosine ligase was more than 4000 µM.

`Cc1cc(=O)oc2cc(NN=Cc3ccccc3O)ccc12`: in data set [4], the Abs max came to 380 nm, the Em max is given as 459 nm and the “φ (quantum yield)” value was determined as 0.131.

`Nc1cc(C[C@H](N)C(=O)O)ccc1O` [3-Aminotyrosine] had an inhibitory constant (Ki) at tubulin tyrosine ligase (setting [6]) of 200 µM.

What is called pKa is the pH at which an ionisable group is half protonated. With Phenyl hydrazide, the pKa in data set [5] is 3.1.

With `[N-]=[N+]=Nc1cc(C[C@H](N)C(=O)O)ccc1O` [3-Azidotyrosine], the affinity on tubulin tyrosine ligase, expressed as Ki, was 200 µM.

Consider `NNc1ccccc1` [phenyl hydrazine], for which the pKa in data set [5] was 5.3.
